# Test results: patent US20130142847A1, “S-ADENOSYLMETHIONINE FORMULATIONS WITH ENHANCED BIOAVAILABILITY” (Methylation Sciences, Inc., priority 2009, published 2013)
# Columns and labels:
# Caco-2 cell monolayers [1] = test: Permeability of SAMe across Caco-2 cell monolayers (Example 3); settings: for Papp_a-b Apical to Basal: apical to basolateral; for Papp_a-b Apical to Basal / Papp_b-a Basal to Apical: HBSS pH 7.4, 120 minute incubation, SAMe salt 2 mM; for Papp_b-a Basal to Apical: basolateral to apical
# Experimental: (§1) In these models, pure cell lines are grown on a semi-permeable membrane. Drug formulations are placed on the apical or basolateral side of the cell monolayer and transport is determined via measurement of drug concentrations on the other side of the membrane.
# (§2) The Caco-2 cell line utilized here was from the American Type Culture Collection (ATCC). Caco-2 cells are grown in Dulbecco's modified Eagle's medium (DMEM, Gibco) supplemented with 20% FBS (fetal bovine serum, Gibco), 100 uM non-essential amino acids (NEAA, Gibco) and 2 mM L-glutamine (Gibco). A Beckton Dickinson BIOCOAT® HTS Caco-2 Assay System Kit is used resulting in 6.6×10^5 cells/cm^2 seeding density (BIOCOAT is a registered trademark of Collaborative Biomedical Products, Inc., Bedford, Mass., USA). The cells used in transport studies are grown for 3 days before the experiments. The culturing conditions are 37° C. in an atmosphere of 5% CO2 and 100% humidity.
# (§3) For permeability across Caco-2 cell monolayers, the transport medium used was Hank's Buffered Salt Solution (HBSS; purchased from Gibco) containing D-glucose, and HEPES pH adjusted to 7.4. A 2 mM aqueous solution of either SAMe tosylate disulfate or SAMe 1,4 butanedisulfonate was added on the apical or basolateral side according to the manufacturer's procedure for the Caco-2 kit. Samples were measured after 120 minute incubation by liquid chromatography-mass spectrometry (LC/MS). The integrity of the monolayers was monitored using Lucifer Yellow Assay. […] Propranolol is a high permeability marker and was utilized as a positive control for a readily absorbed molecule.
# Caco-2 cell monolayers [2] = test: 24 hour resistance recovery test (Caco-2 cell recovery post treatment); type: cell-based, human
# Experimental: As part of these in vitro studies, the degree of Caco-2 cell recovery (as observed by degree of permeability and cell attachment 24 hours post treatment with each tight junction modulator) was also investigated. This 24 hour resistance recovery test is an indirect measure of epithelial cell disruption and data supporting a trend toward less in vitro disruption may be associated with less impact in vivo.
# [3] = Single dose pharmacokinetic study of enteric coated SAMe capsules in fasted male beagle dogs; type: in vivo; settings: for effect on in vivo bioavailability of SAMe / amount of SAMe in the plasma versus control: beagle dogs, capsule 200 mg SAMe ion + 200 mg enhancer vs control capsule, result in words
# Experimental: Following collection, samples were centrifuged (at 4° C.) to separate the plasma fraction from the blood cells. The resulting plasma fraction was recovered and stored frozen (at −80° C.) using polypropylene tubes pending bioanalytical analysis.
# This method employs stable-isotope dilution liquid chromatography-electrospray […] tandem mass spectrometry (LC-ESI-MS/MS) to determine SAMe and SAH in plasma.
# Caco-2 cell monolayers [4] = test: Caco-2 permeability of SAMe in the presence of tight junction modulators (Examples 3a, 3c); settings: for Permeability Coefficient: SAMe permeability; for Fold Transport Increase: SAMe transport vs SAMe control; for change in SAMe permeability across the Caco-2 cell monolayer: sulfobetaine 0.15 mM as the enhancer; for effect on SAMe uptake / SAMe permeability: in the presence of the agent, result in words
# Experimental: (§4) Similar to the description above, the Caco-2 cell line was obtained from ATCC and grown in DMEM (Sigma-Aldrich) supplemented with 20% FBS (Sigma-Aldrich), 100 uM non-essential amino acids (Sigma-Aldrich) and 2 mM L-glutamine (Sigma-Aldrich). The Caco-2 cells grown in tissue culture flasks were trypsinized, suspended in medium, and the suspensions were applied to wells of a collagen-coated BioCoat Cell Environment in 24-well format at 24,500 cells per well. The cells were allowed to grow and differentiate for three weeks, feeding at 2-day intervals.
# (§5) For apical to basolateral permeability, a 2 mM aqueous solution of SAMe tosylate disulfate was added to the apical side and the amount of permeation was determined on the basolateral side. The apical and basolateral side buffers contained modified Transport Buffer (25 mM HEPES, 1× Hank's Balanced Salt Solution (Sigm-Aldrich)) pH 7.4. Caco-2 cells were incubated with these buffers for 2 hours, and the receiver side buffer was removed for analysis by LC/MS/MS. The receiver, donor, and dosing solution were diluted with an equal volume of 0.2 N HCl immediately after the assay in order to increase SAMe stability. Donor and dosing solution were diluted 100-fold to ensure that the concentration was within the linear range of the assay.
# (§6) The permeability (Papp) of SAMe is calculated using the following formula:
# (§7) Where dQ/dt is the rate of permeation, C0 is the initial concentration of test agent, and A is the area of the monolayer.
# (§8) In vitro Caco-2 testing was performed as detailed above using 0.15 mM of sulfobetaine-10, sulfobetaine-12, sulfobetaine-14, sulfobetaine-16, or sulfobetaine-18 as the enhancer.
# [5] = Plasma SAMe metabolites after 1600 mg of a commercially available SAMe formulation; type: in vivo; settings: all time points after 1600 mg dose of commercially available SAMe; seven subjects
# Experimental: This finding is in contrast to the general dogma surrounding SAMe metabolism which continually reports that low SAMe bioavailability is due to active metabolism by the liver upon administration. […] In order to test this theory, the inventors measured the level of S-adenosyl homocysteine (SAH), the primary metabolite of SAMe, at various time points after administration of a 1600 mg dose of a commercially available SAMe formulation.
# [6] = Caco-2 permeability of SAMe in the presence of tight junction modulators (Examples 3a, 3c); settings: human, Caco-2, pH 7.4, Permeability Coefficient, permeability control compound itself, 50 uM
# Experimental: as §4, §5, §6, §7, §8
# [7] = literature reports; cited from earlier work
# cultured rat hepatocytes = settings: McMillan et al. 2005; cited from earlier work
# Caco-2 cells = settings: McMillan et al. 2005; cited from earlier work
# [8] = Permeability of SAMe across Caco-2 cell monolayers (Example 3); settings: human, Caco-2, pH 7.4
# Experimental: as §1, §2, §3
# [9] = plasma, fasted male beagle dogs, single oral enteric coated capsule, 200 mg SAMe ion with or without 200 mg enhancer
smiles,measurement,setting,value
"C[S+](CC[C@H](N)C(=O)[O-])C[C@H]1O[C@@H](n2cnc3c(N)ncnc32)[C@H](O)[C@@H]1O.O=S(=O)(O)CCCCS(=O)(=O)O (stereo partly drawn) [SAMe 1,4 butanedisulfonate]",Papp_a-b Apical to Basal,Caco-2 cell monolayers [1],0.5 ×10⁻⁶ cm/s
same,Papp_b-a Basal to Apical,Caco-2 cell monolayers [1],0.6 ×10⁻⁶ cm/s
CCCCCCCCCCCCCC[N+](C)(C)CCCS(=O)(=O)[O-] [Sulfobetaine-14],TEER Resist. 24 hour post assay,Caco-2 cell monolayers [2]; enhancer 0.15 mM,1892 ohms
same,effect on in vivo bioavailability of SAMe / amount of SAMe in the plasma versus control,[3],significant increase in the bioavailability of SAMe
same,SAMe AUC,[3]; [9],10226 ng·h/mL
same,SAMe Cmax,[3]; [9],4148 ng/mL
same,Permeability Coefficient,Caco-2 cell monolayers [4]; enhancer 0.15 mM (Table 7),0.654 ×10⁻⁶ cm/s
same,Fold Transport Increase,Caco-2 cell monolayers [4]; enhancer 0.15 mM (Table 7),5.0X
same,change in SAMe permeability across the Caco-2 cell monolayer,Caco-2 cell monolayers [4],at least a five-fold increase
CCCCCCCCCC[N+](C)(C)CCCS(=O)(=O)[O-] [sulfobetaine-10],change in SAMe permeability across the Caco-2 cell monolayer,Caco-2 cell monolayers [4],did not improve SAMe permeability
CCCCCCCCCC(=O)[O-].[Na+] [Sodium Caprate],effect on in vivo bioavailability of SAMe / amount of SAMe in the plasma versus control,[3],did not enhance the in vivo bioavailability of SAMe
"Nc1ncnc2c1ncn2[C@@H]1O[C@H](CSCC[C@H](N)C(=O)O)[C@@H](O)[C@H]1O [SAH, S-adenosyl homocysteine]",plasma concentration of SAH relative to SAMe,[5],significantly lower than the level of SAMe itself
CCCCCCCCCCCCCCCCCC[N+](C)(C)CCCS(=O)(=O)[O-] [Sulfobetaine-18],TEER Resist. 24 hour post assay,Caco-2 cell monolayers [2]; enhancer 0.15 mM,292 ohms
same,Permeability Coefficient,Caco-2 cell monolayers [4]; enhancer 0.15 mM (Table 7),0.649 ×10⁻⁶ cm/s
same,Fold Transport Increase,Caco-2 cell monolayers [4]; enhancer 0.15 mM (Table 7),5.0X
same,change in SAMe permeability across the Caco-2 cell monolayer,Caco-2 cell monolayers [4],at least a five-fold increase
"CC(=O)CC(c1ccccc1)c1c(O)c2ccccc2oc1=O (stereo not drawn) [Warfarin, reference compound]","Papp at 2 h, 50 uM",[6]; run 2,48.8 ×10⁻⁶ cm/s
same,"Papp at 2 h, 50 uM",[6]; run 3,49 ×10⁻⁶ cm/s
same,"Papp at 2 h, 50 uM",[6]; run 4,46.6 ×10⁻⁶ cm/s
CCCCCCCCCCCC[N+](C)(C)CCCS(=O)(=O)[O-] [Sulfobetaine-12],TEER Resist. 24 hour post assay,Caco-2 cell monolayers [2]; enhancer 0.15 mM,1923 ohms
same,Permeability Coefficient,Caco-2 cell monolayers [4]; enhancer 0.15 mM (Table 7),0.257 ×10⁻⁶ cm/s
same,Fold Transport Increase,Caco-2 cell monolayers [4]; enhancer 0.15 mM (Table 7),1.4X
same,change in SAMe permeability across the Caco-2 cell monolayer,Caco-2 cell monolayers [4],did not improve SAMe permeability
"CCCCCCCCCCCCCCCC(=O)OC(CC(=O)O)C[N+](C)(C)C.[Cl-] (stereo not drawn) [Palmitoyl Carnitine Chloride (PCC), Palmitoyl carnitine chloride]",Permeability Coefficient,"Caco-2 cell monolayers [4]; test article 0.15 mM, run 2",0.78 ×10⁻⁶ cm/s
same,Permeability Coefficient,"Caco-2 cell monolayers [4]; test article 0.15 mM, run 4",5 ×10⁻⁶ cm/s
same,Permeability Coefficient,"Caco-2 cell monolayers [4]; test article 0.4 mM, run 4",10 ×10⁻⁶ cm/s
same,effect on SAMe uptake / SAMe permeability,Caco-2 cell monolayers [4],marked increase in SAMe permeability
"CNC(=C[N+](=O)[O-])NCCSCc1ccc(CN(C)C)o1 [Ranitidine, reference compound]","Papp at 2 h, 50 uM",[6]; run 2,0.91 ×10⁻⁶ cm/s
same,"Papp at 2 h, 50 uM",[6]; run 3,0.91 ×10⁻⁶ cm/s
same,"Papp at 2 h, 50 uM",[6]; run 4,1 ×10⁻⁶ cm/s
CCCCCCCC[N+](C)(C)CCCS(=O)(=O)[O-] [Sulfobetaine-8],TEER Resist. 24 hour post assay,Caco-2 cell monolayers [2]; enhancer 0.15 mM,1553 ohms
same,Permeability Coefficient,Caco-2 cell monolayers [4]; enhancer 0.15 mM (Table 7),0.218 ×10⁻⁶ cm/s
same,Fold Transport Increase,Caco-2 cell monolayers [4]; enhancer 0.15 mM (Table 7),1.2X
"C[S+](CC[C@H](N)C(=O)O)C[C@H]1O[C@@H](n2cnc3c(N)ncnc32)[C@H](O)[C@@H]1O (stereo partly drawn) [SAMe, S-adenosyl-L-methionine]",SAMe bioavailability when orally administered,[7],less than 5%
same,absorption by cultured rat hepatocytes,cultured rat hepatocytes,poorly absorbed
same,transport through a monolayer of Caco-2 cells,Caco-2 cells,poorly transported
same,fold increase in SAMe permeability,Caco-2 cell monolayers [1]; calcium-free buffer,13-24 fold
"CCCCCCCCCCCCCCCC[N+](C)(C)CCCS(=O)(=O)[O-] [3-(N,N-Dimethylpalmitylammonio)propanesulfonate]",TEER Resist. 24 hour post assay,Caco-2 cell monolayers [2]; enhancer 0.6 mM,33 ohms
same,effect on in vivo bioavailability of SAMe / amount of SAMe in the plasma versus control,[3],significant increase in the amount of SAMe present in the plasma
same,effect on SAMe uptake / SAMe permeability,Caco-2 cell monolayers [4],marked increase in SAMe permeability
same,change in SAMe permeability across the Caco-2 cell monolayer,Caco-2 cell monolayers [4],at least a five-fold increase
CC(C)NCC(O)COc1cccc2ccccc12 (stereo not drawn) [Propranolol],Papp A→B at 120 min,[8],22.4 ×10⁻⁶ cm/s
same,Papp B→A at 120 min,[8],18.4 ×10⁻⁶ cm/s
same,Papp_a-b Apical to Basal,Caco-2 cell monolayers [1],22.4 ×10⁻⁶ cm/s
same,Papp_b-a Basal to Apical,Caco-2 cell monolayers [1],18.4 ×10⁻⁶ cm/s
